# According to patent US20240417408A1, “SMALL MOLECULE INHIBITORS OF KRAS G12C MUTANT” (MERCK SHARP & DOHME CORP., priority 2021, published 2024):
# How the values were obtained:
# [1] = target: T1, biotinylated KRAS protein containing G12C/C51S/C80L/C118S mutations (SEQ ID NO: 3) (Homo sapiens, UniProt P01116, C118S/C51S/C80L/G12C); test: Test Example 4: SOS-catalyzed nucleotide exchange assay (TR-FRET); type: biochemical; settings: 60-minute incubation with compound, then SOS and GTP, read-out: GNE IC50
# T1 construct: biotin acceptor peptide (Avi-type, […]
# T1 sequence (P01116 with tags, fused parts or gaps isoform P01116-2 G12C/C51S/C80L/C118S): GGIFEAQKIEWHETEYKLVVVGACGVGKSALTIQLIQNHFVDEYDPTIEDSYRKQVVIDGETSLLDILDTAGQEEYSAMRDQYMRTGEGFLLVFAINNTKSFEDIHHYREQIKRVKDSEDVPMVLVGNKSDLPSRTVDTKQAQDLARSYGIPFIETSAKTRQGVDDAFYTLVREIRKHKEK
# Experimental: Test Example 4: Procedure for SOS-Catalyzed Nucleotide Exchange Assay
# The SOS-catalyzed nucleotide exchange assay utilizes a preformed complex of recombinant biotinylated KRAS protein containing G12C/C51S/C80L/C118S mutations (SEQ ID NO: 3) (referred to as Biotinylated KRAS G12C protein hereafter), Bodipy-GDP, and Terbium-streptavidin. Compounds are added to this complex and then after a 60-minute incubation time the mixture is treated with SOS and unlabeled GTP. Small molecule inhibitors stabilize the Bodipy-GDP complex whereas the untreated protein rapidly exchanges Bodipy-GDP for unlabeled GTP resulting in reduced TR-FRET signal.
# Biotinylated KRAS G12C protein is diluted to 2 μM in an EDTA buffer (20 mM HEPES, 50 mM sodium chloride, 10 mM EDTA, and 0.01% Tween) and incubated at room temperature for one hour. This mixture is then further diluted to 90 nM in an assay buffer (20 mM HEPES, 150 mM sodium chloride, 10 mM magnesium chloride, and 0.005% Tween) containing 15 nM of Terbium-Streptavidin (Invitrogen, catalog #PV3577) and 900 nM of Bodipy-GDP (Invitrogen, G22360) and incubated at room temperature for six hours. This solution is referred to as Biotinylated KRAS G12C stock solution and is then diluted to 9 nM in assay buffer to give the KRAS G12C assay solution.
# (§1) Each test compound (10 mM stock in DMSO) is diluted in DMSO to make a 10-point, 3-fold dilution series in a 384-well low dead volume microplate (Labcyte, catalog #LP-0200). Once titrations are made, 10 nL of the diluted compounds is acoustically dispensed into a 384-well plate (Corning, catalog #3820) using an Echo 550 (Labcyte).
# Each well receives 6 μL of Biotinylated KRAS G12C assay solution using a BioRAPTR (Beckman Coulter) and is incubated at room temperature for 60 minutes in a humidified chamber. Each well then receives 3 μL of 120 nM recombinant human SOS protein and 9 mM GTP (Sigma, G8877) in assay buffer and is incubated at room temperature for 60 minutes in a humidified chamber.
# (§2) The time-resolved fluorescence resonance energy transfer signal of both plates is measured on an Envision (PerkinElmer) plate reader: Excitation filter=340 nm; emission 1=495 nm; emission 2=520 nm; dichroic mirror=D400/D505; delay time=100 μs. The signal of each well is determined as the ratio of the emission at 520 nm to that at 495 nm. Percent effect of each well is determined after normalization to control wells containing DMSO (no effect) or a saturating concentration of inhibitor (max effect). The apparent effect as a function of compound concentration is fit to a four-parameter logistic equation.
# [2] = target: T2, Biotinylated KRAS G12C protein and GST-tagged Ras binding domain of c-RAF (Homo sapiens, UniProt P01116, C118S/C51S/C80L/G12C); test: Test Example 5: RAS:RAF-RBD binding assay (TR-FRET); settings: 30-minute incubation with compound, then GST-c-RAF RBD, read-out: cRaf IC50
# T2 construct: biotin acceptor peptide (Avi-type, […]
# T2 sequence (P01116 with tags, fused parts or gaps isoform P01116-2 G12C/C51S/C80L/C118S): as above
# Experimental: Test Example 5: Procedure for RAS:RAF-RBD Binding Assay
# The RAF-Ras binding domain (RBD) protein interaction assay utilizes Biotinylated KRAS G12C protein (SEQ ID NO: 3) and the GST-tagged Ras binding domain of c-RAF (residues 50-132) from Jena Biosciences). Compounds are added to KRAS and then after a 30-minute incubation time the RAF-RBD and detection antibodies are added. Small molecule inhibitors that block the interaction of c-RAF-RBD prevent generation of a TR-FRET signal.
# Biotinylated KRAS G12C protein is diluted to 20 nM in assay buffer (20 mM HEPES pH 7.5, 150 mM sodium chloride, 10 mM magnesium chloride, and 0.01% Tween20).
# as §1, with “made, 50” for “made, 10”, “into” for “into a”, “384-well plates” for “384-well plate”, “Echo 655” for “Echo 550”
# Each well of the assay plate receives 5 μL of Biotinylated KRAS G12C assay solution and is incubated at room temperature for 30 minutes. Each well then receives 5 μL of 100 nM GST-c-RAF RBD protein and a 1:100 dilution of both anti-GST-d2 (Cisbio catalog #61GSTDLA) and Strepavidin-Tb cryptate (Cisbio catalog #610SATLA) in assay buffer and the plate is mixed and briefly centrifuged followed by a 60 minute incubation at room temperature.
# as §2, with “dichroic mirror=LANCE/DELFIA DUAL/Bias; Emission1=615” for “Excitation filter=340”, “Emission2=665” for “emission 1=495”, “nm;” for “nm; emission 2=520 nm; dichroic mirror=D400/D505;”, “time=[…].” for “time=100 μs.”, “665” for “520”, “615” for “495”
smiles,measurement,setting,value
"C#Cc1cccc2cccc([C@@H]3Cc4nc(OC[C@@]56CCCN5C[C@H](F)C6)nc(N5CCN(C(=O)/C=C/CN6CCC(OC)CC6)[C@@H](CC#N)C5)c4CO3)c12 (single isomer, unassigned) [Example 25b]",IC50,[1],1.6 nM
same,IC50,[2],74 nM
"COC1CCN(C/C=C/C(=O)N2CCN(c3nc(OC[C@@]45CCCN4C[C@H](F)C5)nc4c3COC(c3nc(N)cc(C)c3C(F)(F)F)C4)C[C@@H]2CC#N)CC1 (stereo partly drawn) [Example 22, 2-((2S)-4-(7-(6-amino-4-methyl-3-(trifluoromethyl)-pyridin-2-yl)-2-(((2R,7aS)-2-fluorotetrahydro-1H-pyr-rolizin-7a(5H)-yl)methoxy)-7,8-dihydro-5H-pyrano[4,3-d]pyrimidin-4-yl)-1-((E)-4-(4-methoxypiperidin-1-yl)-but-2-enoyl)piperazin-2-yl)-acetonitrile]",IC50,[1],5.6 nM
same,IC50,[2],122 nM
"C#Cc1cccc2cccc(C3Cc4nc(OC[C@]5(CO)CC5(F)F)nc(N5CCN(C(=O)/C=C/CN6CCC(OC)CC6)[C@@H](CC#N)C5)c4CO3)c12 (stereo partly drawn) [Example 24, 2-((2S)-4-(2-(((R)-2,2-difluoro-1-(hydroxymethyl)cyclopropyl)methoxy)-7-(8-ethynylnaphthalen-1-yl)-7,8-dihydro-5H-pyrano[4,3-d]pyrimidin-4-yl)-1-((E)-4-(4-methoxypiperidin-1-yl)but-2-enoyl)piperazin-2-yl)acetonitrile]",IC50,[1],55 nM
same,IC50,[2],> 50000 nM
"COC1CCN(C/C=C/C(=O)N2CCN(c3nc(OC[C@@]45CCCN4C[C@H](F)C5)nc4c3CCC3(CCCc5ccccc53)O4)C[C@@H]2CC#N)CC1 (stereo partly drawn) [Example 26, 2-((2S)-4-(2′-(((2R,7aS)-2-fluorotetrahydro-1H-pyrrolizin-7a(5H)-yl)methoxy)-3,4,5′,6′-tetrahydro-2H-spiro[naphthalene-1,7′-pyrano[2,3-d]pyrimidin]-4′-yl)-1-((E)-4-(4-methoxypiperidin-1-yl)but-2-enoyl)piperazin-2-yl)acetonitrile]",IC50,[1],80.8 nM
same,IC50,[2],48800 nM
